In test [1] the target is T1, EGFR tyrosine kinase (Homo sapiens, UniProt P00533).
T1 construct: Recombinant intracellular fragments of EGFR, erbB2 and erbB4; made in house; host or cells: baculovirus/Sf21 insect cells (cleared lysate used)
Kind of test: Test (a) protein tyrosine kinase phosphorylation assay, EGFR. The class given is biochemical. The following applies: read-out: IC50 Test (a): Inhibition of EGFR tyrosine kinase protein phosphorylation. On the procedure: (§1) a) Protein Tyrosine Kinase phosphorylation Assays
(§2) This test measures the ability of a test compound to inhibit the phosphorylation of a tyrosine containing polypeptide substrate by EGFR, erbB2 and erbB4 tyrosine kinase enzyme.
(§3) Recombinant intracellular fragments of EGFR, erbB2 and erbB4 (accession numbers X00588, X03363 and L07868 respectively) were cloned and expressed in the baculovinis/Sf21 system. […]
(§4) Constitutive kinase activity of these recombinant proteins was determined by their ability to phosphorylate a synthetic peptide (made up of a random co-polymer of Glutamic Acid, Alanine and Tyrosine in the ratio of 6:3:1). […]
(§5) The immobilised phospho-peptide product of the reaction was detected by immunological methods. […] After further washing, HRP activity in each well of the plate was measured colorimetrically using 22′-Azino-di-[3-ethylbenzthiazoline sulfonate (6)]diammonium salt crystals (ABTS™ from Roche) as a substrate.
(§6) Quantification of colour development and thus enzyme activity was achieved by the measurement of absorbance at 405 nm on a Molecular Devices ThermoMax microplate reader. Kinase inhibition for a given compound was expressed as an IC50 value. […] The range of phosphorylation was calculated from the positive (vehicle plus ATP) and negative (vehicle minus ATP) control values.

Test [2] relates to BT474C cells. Kind of test: Test (e) BT474C cell proliferation assay. The following applies: Homo sapiens, 96 h, four-day MTS assay, read-out: IC50 Test (e): Inhibition of proliferation of BT474C cells. The class given is cell-based. The source says: The BT-474 tumour cell line (human mammary carcinoma) was obtained from Dr Baselga (at Laboratorio Recerca Oncologica, Paseo Vall D'Hebron 119-129, Barcelona 08035, Spain). This cell line was subcloned and a certain population (hereinafter referred to as “BT474C”) was obtained.
e) BT474C Cell Proliferation Assay
BT474C cells are a sub-cloned population of in vivo competent cells, as discussed above.
The BT474C assay is a MTS (3-(4,5-dimethylthiazol-2-yl)-5-(3-carboxymethoxyphenyl)-2-(4-sulfophenyl)-2H-tetrazolium, inner salt—Promega G1111) endpoint-based cell proliferation assay, which measures the ability of a test compound to inhibit the proliferation of cells over a four-day period. […] Cell density is measured using a haemocytometer and viability is calculated using Trypan Blue solution before being further diluted in Assay Medium and seeded at a density of 1×10^4 cells per well (in 100 μl) into clear bottomed 96 well plates (Costar 3598). […] The plate is read at 490 nm on a spectrophotometer.
Assay plates are left at 37° C. for 4 days and then treated with MTS solution (as above), which is converted to a soluble formazan product by active cells. After incubating the plates for 2 hours the reaction is stopped by the addition of 10% SDS (Sodium dodecyl sulphate) and the plates are read at 490 nm on a spectrophotometer giving absorbance values relative to the concentration of converted dye. […]

For test [3], the target named is T2, erbB2 tyrosine kinase (Homo sapiens, UniProt P04626).
T2 construct: Recombinant intracellular fragments of EGFR, erbB2 and erbB4; made in house; host or cells: baculovirus/Sf21 insect cells (cleared lysate used)
Nature of the test: Test (a) protein tyrosine kinase phosphorylation assay, erbB2. It counts as biochemical. The following applies: read-out: IC50 Test (a): Inhibition of erbB2 tyrosine kinase protein phosphorylation. Here is the method:
as §1, §2, §3, §4, §5, §6

Results on two compounds are retold here after patent US20100222344A1, “4-ANILINO-SUBSTITUTED QUINAZOLINE DERIVATIVES AS TYROSINE KINASE INHIBITORS” (AstraZeneca AB, priority 2005, published 2010).

T2 sequence (P04626 676-1255 limits assumed): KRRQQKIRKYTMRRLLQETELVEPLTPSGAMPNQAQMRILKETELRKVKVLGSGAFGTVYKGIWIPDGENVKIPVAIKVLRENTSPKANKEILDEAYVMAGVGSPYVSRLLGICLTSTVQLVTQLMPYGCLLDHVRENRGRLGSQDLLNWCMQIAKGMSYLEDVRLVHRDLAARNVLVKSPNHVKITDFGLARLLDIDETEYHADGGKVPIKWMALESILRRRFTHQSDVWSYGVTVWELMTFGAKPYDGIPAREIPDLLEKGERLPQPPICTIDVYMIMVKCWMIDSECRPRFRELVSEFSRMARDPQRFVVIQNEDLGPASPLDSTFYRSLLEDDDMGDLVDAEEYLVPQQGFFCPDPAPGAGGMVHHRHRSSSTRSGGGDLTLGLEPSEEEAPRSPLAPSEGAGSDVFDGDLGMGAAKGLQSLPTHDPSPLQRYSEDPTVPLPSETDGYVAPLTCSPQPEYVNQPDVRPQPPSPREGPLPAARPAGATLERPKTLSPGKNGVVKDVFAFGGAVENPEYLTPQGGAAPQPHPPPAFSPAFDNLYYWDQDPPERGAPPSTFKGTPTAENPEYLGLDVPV
T1 sequence (P00533 669-1210 limits assumed): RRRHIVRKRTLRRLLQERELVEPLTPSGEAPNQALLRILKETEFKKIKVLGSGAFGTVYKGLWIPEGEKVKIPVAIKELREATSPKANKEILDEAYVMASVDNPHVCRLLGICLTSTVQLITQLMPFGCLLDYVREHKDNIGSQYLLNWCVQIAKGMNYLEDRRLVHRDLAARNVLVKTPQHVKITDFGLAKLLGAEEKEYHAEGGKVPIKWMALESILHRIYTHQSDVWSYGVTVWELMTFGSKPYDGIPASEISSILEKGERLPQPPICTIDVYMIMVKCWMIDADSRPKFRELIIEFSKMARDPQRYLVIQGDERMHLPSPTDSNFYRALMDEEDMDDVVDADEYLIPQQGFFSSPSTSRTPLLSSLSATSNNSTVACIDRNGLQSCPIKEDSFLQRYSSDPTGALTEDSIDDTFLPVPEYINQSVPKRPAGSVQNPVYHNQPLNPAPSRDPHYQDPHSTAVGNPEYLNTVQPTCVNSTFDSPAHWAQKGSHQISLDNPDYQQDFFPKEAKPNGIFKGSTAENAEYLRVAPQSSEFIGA

Take `C[C@@H](Oc1cccc2ncnc(Nc3ccc(OCC4CCCO4)c(Cl)c3)c12)C(=O)N1CCOCC1` (stereo partly drawn) [Example 2, N-[3-chloro-4-(tetrahydrofuran-2-ylmethoxy)phenyl]-5-[(1R)-1-methyl-2-morpholin-4-yl-2-oxoethoxy]quinazolin-4-amine]: the IC50 in test [1] came to 362 nM; in test [2], 337 nM; in test [3] it was 8 nM.

Take `CSCCCOc1ccc(Nc2ncnc3cccc(O[C@H](C)C(=O)N4CCOCC4)c23)cc1Cl` [Example 3, N-{3-chloro-4-[3-(methylthio)propoxy]phenyl}-5-[(1R)-1-methyl-2-morpholin-4-yl-2-oxoethoxy]quinazolin-4-amine]: the figures for the IC50 in test [1], in test [2] and in test [3] were 169 nM, 418 nM and 3 nM, respectively.
